Assays:
human PGF2α receptor = human PGF2α receptor (Homo sapiens, UniProt P43088); conditions: competitive radioligand binding, U.S. Pat. No. 8,415,480, read-out: inhibition constant (Ki); cited from earlier work
[1] = crystal form stability and hygroscopicity; assay type: physicochemical
Text: For example, this compound is readily crystallized using a several distinct experimental procedures. Compound 3 assumes a single, reproducible crystal form upon crystallization from a variety of media and under different ambient conditions. […] For instance, impurities associated with atmospheric water are not readily integrated into the crystalline form of compound 3.

[2] = Phase II clinical trial Part A: plasma pharmacokinetics; assay type: in vivo, human
Method: (§1) Subjects participating in Part A of the study were diagnosed with preterm labor and were already receiving an atosiban infusion for 48 hours. Compound (2) was administered orally to each subject in an amount of 500 mg twice daily for 7 days, with a loading dose of 1,000 mg on Day 1.
(§2) In Part A of the study, fetal cardiac safety was monitored using Doppler ultrasound, and compound (2) pharmacokinetics were assessed on days 1, 2, 3 and 7 of the study. Amniotic Fluid Index was monitored from days 1 to 14. Time to delivery was also assessed.

[3] = system: pregnant women with threatened spontaneous preterm labor; test: Phase II clinical trial Part B: efficacy to delay preterm birth; assay type: in vivo, human
Method: (§3) A total of n=58 patients were treated with compound (2) and atosiban, and n=55 patients were treated with placebo and atosiban. As in part A, patients underwent a 48-hour infusion with atosiban. On the first day of atosiban treatment, patients were administered either placebo or compound (2) in a loading dose of 1,000 mg. On subsequent days, patients were then administered either placebo or compound (2) twice daily in an amount of 500 mg per dose until delivery.
Gestational age was confirmed by a first trimester ultrasound scan or by fertilization date. […] Subjects were required to begin treatment with atosiban within 24 hours before starting study treatment.
All participants received intravenous atosiban as standard-of-care therapy according to the approved product label for 48 hours. Treatment with study medication was to be initiated ideally simultaneously or at a maximum within 24 hours after initiating atosiban treatment. The loading dose of compound (2) was 1000 mg, with a maintenance dose of 500 mg twice a day, each 12 hours apart, for 7 days. Women allocated to the control group received the same dosing regimen with placebo. Subjects were instructed to record IMP administration in a patient diary and had to bring both opened and unopened IMP packages to each visit, in order to allow the assessment of compliance with study treatment.
Efficacy to delay preterm birth was assessed using the following outcomes: • delivery within 48 hours from start of treatment medication; • delivery within 7 days from start of treatment medication; • delivery before 37 weeks gestational age; and • time to delivery measured from start of treatment medication.
As this study was a proof-of-concept study, a primary efficacy endpoint was not prospectively defined. Other outcomes included the following: • uterine contractions assessed by electrohysterography, tocodynamometry, or abdominal palpation at each hour during the first 6 hours after start of test treatment; and • maternal plasma concentrations and pharmacokinetics of compound (1) (the active metabolite of compound (2)) and fetal cord blood concentrations at the time of delivery.
Analyses of the incidence of delivery within 2 days (48 h), within 7 days (168 h) post-compound (2) administration start, and before 37 weeks of gestational age was performed using logistic regression with treatment group as the independent variable. Strata effects (gestational age and number of fetuses) were included within the model. The treatment effect was expressed as an adjusted odds ratio with 90% confidence intervals. Treatment by strata interaction terms were explored. Other covariates explored included the pre-dose uterine contraction rate as well as the possibility of a site-to-site effect. Time to delivery measured from start of IMP administration was analyzed using Cox's proportional-hazards model. In addition, a log-rank test was performed. The analysis was performed using SAS® statistical software Version 9.4. P-values <0.10 were considered to indicate statistical significance.

[4] = system: pregnant women with threatened spontaneous preterm labor; test: Phase II clinical trial Part B: adverse events; assay type: in vivo, human; conditions: patients undergoing atosiban infusion
Method: as §3
All participants received intravenous atosiban as standard-of-care therapy according to the approved product label for 48 hours. […]
Safety was assessed by way of the following outcomes: • maternal incidence of adverse events (AEs), treatment-emergent adverse events (TEAEs), clinically significant changes in laboratory safety tests, and vital signs from Day 1 until 28 days after birth; • incidence of AEs indicating fetal distress, such as growth retardation and/or changes in fetal heart rate monitoring and/or amniotic fluid index (AFI) or amniotic fluid volume (in twins); and incidence of neonates experiencing adverse events, as well as clinically significant changes in vital signs, Apgar score, weight and head circumference at birth, and a measure of neonatal morbidity from birth until 28 days after birth.

[5] = target: T1, Pept1 transporter protein (Homo sapiens, UniProt P46059); test: Pept1 transporter substrate assessment; assay type: in vitro ADME; conditions: compound 2 and salts thereof
T1 sequence (P46059 1-708): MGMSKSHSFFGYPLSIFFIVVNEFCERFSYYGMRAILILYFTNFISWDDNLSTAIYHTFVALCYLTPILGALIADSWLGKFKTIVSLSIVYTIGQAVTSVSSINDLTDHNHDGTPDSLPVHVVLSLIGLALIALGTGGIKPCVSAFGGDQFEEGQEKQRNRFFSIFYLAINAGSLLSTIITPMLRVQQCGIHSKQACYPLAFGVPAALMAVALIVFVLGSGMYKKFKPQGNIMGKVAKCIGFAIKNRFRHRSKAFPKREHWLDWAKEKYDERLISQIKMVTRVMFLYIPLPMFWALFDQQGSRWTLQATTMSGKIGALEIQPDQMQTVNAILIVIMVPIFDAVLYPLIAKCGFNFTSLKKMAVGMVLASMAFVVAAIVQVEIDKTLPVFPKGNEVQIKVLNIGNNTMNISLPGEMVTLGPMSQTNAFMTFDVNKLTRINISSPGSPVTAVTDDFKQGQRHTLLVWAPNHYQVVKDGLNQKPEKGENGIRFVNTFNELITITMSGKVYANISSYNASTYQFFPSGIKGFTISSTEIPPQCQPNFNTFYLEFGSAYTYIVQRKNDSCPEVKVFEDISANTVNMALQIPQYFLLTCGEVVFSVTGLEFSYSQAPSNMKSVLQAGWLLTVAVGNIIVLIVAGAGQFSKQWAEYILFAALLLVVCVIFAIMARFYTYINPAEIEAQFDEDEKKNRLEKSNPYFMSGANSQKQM
Text: Compound 2 is de-esterified by ambient esterases in the small intestine and subsequently penetrates the small intestinal epithelium passively. […] Pept1 is known to mediate the absorption of a variety of valinate esters, as described, for example, in Vig et al., Adv. Drug Deliv. Rev. 65:1370-1385 (2013). […] Despite the presence the valinate ester functionality, compound 2 and salts thereof are not dependent upon this transporter for absorption across the small intestinal epithelium. […] Rather, compound 2 and salts thereof are converted in vivo to a form that is readily absorbed in a manner independent of energy and local proton gradient. This beneficial property, coupled with the high aqueous solubility of compound I and salts thereof, fosters a pharmacokinetic profile in which compound 2 and salts thereof readily dissolve in an aqueous environment and are in turn converted into a form capable of transported-independent absorption.

[6] = system: pregnant women with threatened spontaneous preterm labor; test: Phase II clinical trial Part A: safety (Doppler ultrasound, Amniotic Fluid Index, adverse events); assay type: in vivo, human
Method: as §1, §2

[7] = relative to compound 1; cited from earlier work
[8] = system: pregnant women with threatened spontaneous preterm labor; test: Phase II clinical trial Part A: time to delivery; assay type: in vivo, human
Method: This example reports results of a Phase II clinical trial of compound (2) in pregnant women with threatened spontaneous preterm labor. In part A of the study, compound (2) was administered in open-label fashion to n=9 patients with gestational ages of from 28 to 34 weeks in order to assess pharmacokinetics and safety. In part B of the study, compound (2) was administered to a more expansive set of n=58 subjects in order to assess efficacy, as well as to further evaluate safety.
as §1, §2

Sequence of human PGF2α receptor (P43088 whole entry): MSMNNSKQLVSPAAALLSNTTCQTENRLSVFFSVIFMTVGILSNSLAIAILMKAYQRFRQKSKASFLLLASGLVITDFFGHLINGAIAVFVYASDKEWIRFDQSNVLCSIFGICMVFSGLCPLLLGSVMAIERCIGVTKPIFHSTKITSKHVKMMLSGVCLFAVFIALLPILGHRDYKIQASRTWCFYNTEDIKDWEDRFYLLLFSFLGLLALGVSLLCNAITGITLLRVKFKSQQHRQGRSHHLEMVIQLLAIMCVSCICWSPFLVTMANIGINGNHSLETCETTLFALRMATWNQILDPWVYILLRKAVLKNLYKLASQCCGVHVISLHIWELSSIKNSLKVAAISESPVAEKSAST

## O=C(N[C@@H](CCO)c1ccc(F)cc1)C1SCCN1S(=O)(=O)c1ccc(-c2ccccc2)cc1 (stereo in doubt) [Compound 1, 3-([1,1′-biphenyl]-4-ylsulfonyl)-N-[1-(4-fluorophenyl)-3-hydroxypropyl]-1,3-thiazolidine-2-carboxamide]
Human PGF2α receptor
  Ki: 6 nM

## CC(C)[C@H](N)C(=O)OCC[C@H](NC(=O)[C@@H]1SCCN1S(=O)(=O)c1ccc(-c2ccccc2)cc1)c1ccc(F)cc1.Cl [Compound 3, (3S)-3-({[(2S)-3-(biphenyl-4-ylsulfonyl)-1,3-thiazolidin-2-yl]carbonyl}-amino)-3-(4-fluorophenyl)propyl L-valinate hydrochloride]
[1]
  hygroscopicity: low hygroscopicity
[1]; ambient conditions and elevated relative humidity
  stability of crystal form: extended stability

## CC(C)[C@H](N)C(=O)OCC[C@H](NC(=O)[C@@H]1SCCN1S(=O)(=O)c1ccc(-c2ccccc2)cc1)c1ccc(F)cc1 [compound (2), (3S)-3-({[(2S)-3-(biphenyl-4-ylsulfonyl)-1,3-thiazolidin-2-yl]carbonyl}-amino)-3-(4-fluorophenyl)propyl L-valinate]
[2]; Part A
  plasma concentrations and pharmacokinetic parameters compared with non-pregnant women: similar
[2]; Part A, 1,000 mg loading dose on Day 1
  day on which steady-state concentrations were achieved: 1 days
[2]; Part A, oral, day 1 to day 7, on atosiban
  absorption (plasma concentration vs. time profiles): well absorbed
[2]; Part A, listed as Compound (2)
  plasma concentrations and pharmacokinetic parameters compared with non-pregnant women: comparable
[3]; all women, atosiban + compound (2) vs atosiban + placebo, adjusted odds ratio
  OR (90% CI), delivery ≤48 h: 0.52
[3]; all women, vs atosiban + placebo
  OR (90% CI), delivery ≤7 days: 1.00
[3]; in combination with atosiban, vs atosiban and placebo (FIG. 7)
  reduction in uterine contractions relative to baseline: more sustained reduction
[3]; singleton pregnancy, 24 to 30 weeks GA
  delivery rate within 7 days: 14.3%
[3]; singletons only, GA 24 to 30 wks at BL, vs atosiban + placebo
  OR (90% CI), delivery ≤7 days: 0.53
[3]; singletons only, vs atosiban + placebo
  OR (90% CI), delivery ≤48 h: 0.39
[3]; twins only, vs atosiban + placebo
  OR (90% CI), delivery ≤48 h: 2.05
[4]
  adverse events compared with placebo: fewer adverse events
[5]
  substrate for the Pept1 transporter protein: not substrates
[6]
  adverse events reported for the fetuses: No adverse events
[6]; days 1 to 14 (FIG. 3)
  Amniotic Fluid Index: no clinically significant changes
[6]; fetal cardiac safety
  Doppler ultrasound findings, effect on the ductus arteriosus: no constrictive effect on the ductus arteriosus
[6]; oral administration for 7 days, women receiving atosiban
  tolerability: well tolerated
[6]; over the dosing period (FIG. 2)
  ductus arteriosus Pulsatility Index: did not decrease
[7]
  solubility in water and in FeSSIF and FaSSIF media: improvements
[8]; 9 singleton patients, 1,000 mg loading then 500 mg twice daily oral 7 days, on 48 h atosiban infusion
  patients that did not deliver within 7 days of administration: 8 patients
[8]; 9 singleton patients, oral compound (2) 7 days, on atosiban infusion
  Mean±SD time to delivery: 41 ± 23 days

From patent publication US20240024294A1, “COMPOSITIONS AND METHODS FOR THE TREATMENT OR PREVENTION OF PRETERM LABOR” (XOMA (US) LLC, priority 2020, published 2024)
